From patent US20170150719A1, “FUNGICIDAL PYRAZOLES AND THEIR MIXTURES” (E I DU PONT DE NEMOURS AND COMPANY, priority 2010, published 2017)

How the values were obtained:
[1] = test system: Blumeria graminis f. sp. tritici; assay: Test K (K1-K5): wheat powdery mildew, Compound 81 alone and in mixtures, observed and Colby expected control; assay type: in vivo
[2] = test system: Puccinia recondita f sp. tritici; assay: Test L (L1-L5): wheat leaf rust, Compound 81 alone and in mixtures, observed and Colby expected control; assay type: in vivo
[3] = test system: Septoria tritici; assay: Test M (M1-M5): wheat leaf blotch, Compound 81 alone and in mixtures, observed and Colby expected control; assay type: in vivo
[4] = test system: Septoria tritici; assay: Test F: wheat leaf blotch, preventive spray on wheat seedlings, visual disease rating; assay type: in vivo; settings: preventive spray, 100 = 100% disease control, rating without asterisk
From the text: (§1) A hyphen (-) indicates no test results.

[5] = test system: Puccinia recondita f. sp. tritici; assay: Test G: wheat leaf rust, spray after inoculation (curative) on wheat seedlings, visual disease rating; assay type: in vivo; settings: spray after inoculation, 100 = 100% disease control, rating without asterisk
From the text: as §1

[6] = test system: Puccinia recondita f. sp. tritici; assay: Test H: wheat leaf rust, preventive spray on wheat seedlings, visual disease rating; settings: wheat leaf rust, preventive spray; 100 = 100% disease control; rating without asterisk
[7] = test system: Botrytis cinerea; assay: Test A: tomato Botrytis, preventive spray on tomato seedlings, visual disease rating; settings: tomato Botrytis, preventive spray; 100 = 100% disease control, 0 = no control relative to controls; rating without asterisk
[8] = test system: Alternaria solani; assay: Test B: tomato early blight, preventive spray on tomato seedlings, visual disease rating; settings: tomato early blight, preventive spray; 100 = 100% disease control; rating without asterisk
[9] = test system: Blumeria graminis f. sp. tritici; assay: Test I: wheat powdery mildew, preventive spray on wheat seedlings, visual disease rating; settings: wheat powdery mildew, preventive spray; 100 = 100% disease control; rating without asterisk
[10] = test system: Septoria nodorum; assay: Test E: Septoria glume blotch, preventive spray on wheat seedlings, visual disease rating; settings: Septoria glume blotch on wheat, preventive spray; 100 = 100% disease control; rating without asterisk

Structure (SMILES) | Test F rating (% disease control) [4] [%] | Test G rating (% disease control) [5] [%] | Test H rating (% disease control) [6] [%] | Test A rating (% disease control) [7] [%] | Test B rating (% disease control) [8] [%] | Test I rating (% disease control) [9] [%] | Test E rating (% disease control) [10] [%] | also measured
CC1CCN(c2c(-c3c(F)cc(F)cc3F)c(Cl)nc3ncnn23)CC1 [BAS600, 5-chloro-6-(2,4,6-trifluorophenyl)-7-(4-methylpiperidin-1-yl)[1,2,4]triazolo[1,5-a]pyrimidine] | – | – | – | – | – | – | – | Test K3 Obsd ([1]; component (b) 0.08 ppm alone): 0%; Test K3 Obsd ([1]; component (b) 0.4 ppm alone): 0%; Test K3 Obsd ([1]; component (b) 2 ppm alone): 96%; Test K3 Obsd ([1]; component (b) 10 ppm alone): 100%; Test L3 Obsd ([2]; component (b) 0.08 ppm alone): 74%; Test L3 Obsd ([2]; component (b) 0.4 ppm alone): 88%; Test L3 Obsd ([2]; component (b) 2 ppm alone): 99%; Test L3 Obsd ([2]; component (b) 10 ppm alone): 100%; Test M2 Obsd, disease control rating ([3]; component (b) 0.016 ppm alone): 0%; Test M2 Obsd, disease control rating ([3]; component (b) 0.08 ppm alone): 0%; Test M2 Obsd, disease control rating ([3]; component (b) 0.4 ppm alone): 93%; Test M2 Obsd, disease control rating ([3]; component (b) 2 ppm alone): 100%
Cn1cc(C(=O)Nc2ccc(F)cc2-c2ccc(Cl)c(Cl)c2)c(C(F)F)n1 [bixafen] | – | – | – | – | – | – | – | Test K3 Obsd ([1]; component (b) 0.08 ppm alone): 0%; Test K3 Obsd ([1]; component (b) 0.4 ppm alone): 0%; Test K3 Obsd ([1]; component (b) 2 ppm alone): 64%; Test K3 Obsd ([1]; component (b) 10 ppm alone): 99%; Test L3 Obsd ([2]; component (b) 0.08 ppm alone): 9%; Test L3 Obsd ([2]; component (b) 0.4 ppm alone): 88%; Test L3 Obsd ([2]; component (b) 2 ppm alone): 99%; Test L3 Obsd ([2]; component (b) 10 ppm alone): 100%; Test M2 Obsd, disease control rating ([3]; component (b) 0.08 ppm alone): 0%; Test M2 Obsd, disease control rating ([3]; component (b) 0.4 ppm alone): 33%; Test M2 Obsd, disease control rating ([3]; component (b) 2 ppm alone): 89%
Cc1nn(C)c(Nc2c(F)cc(F)cc2I)c1-c1ccc(F)cc1Cl [compound 213] | 100 | 100 | 100 | 100 | 100 | 100 | 100 | –
Cc1nn(C)c(Nc2c(F)cc(F)cc2I)c1-c1ccc(F)cc1F [compound 214] | 100 | 99 | 99 | 100 | 100 | 100 | 99 | –
Cc1nn(C)c(Nc2c(F)cc(F)cc2I)c1-c1ccc(F)cc1Br [compound 215] | 100 | 100 | 100 | 100 | 100 | 100 | 99 | –
Cc1nn(C)c(Nc2c(F)cc(I)cc2F)c1-c1ccc(F)cc1F [compound 216] | 100 | 18 | 95 | 100 | 0 | 99 | 60 | –
Cc1nn(C)c(Nc2c(F)cc(I)cc2F)c1-c1ccc(F)cc1Cl [compound 217] | 100 | 41 | 99 | 100 | 58 | 99 | 86 | –
Cc1nn(C)c(Nc2c(F)cc(I)cc2F)c1-c1ccc(F)cc1Br [compound 218] | 100 | 0 | 99 | 100 | 68 | 99 | 86 | –
COc1ccc(-c2c(C)nn(C)c2Nc2c(F)cc(F)cc2I)c(Cl)c1 [compound 219] | 100 | 99 | 100 | 100 | 100 | 99 | 100 | –
COc1ccc(-c2c(C)nn(C)c2Nc2c(F)cc(I)cc2F)c(Cl)c1 [compound 220] | 100 | 0 | 97 | 100 | 69 | 96 | 73 | –
COc1ccc(-c2c(C)nn(C)c2Nc2c(F)cc(F)cc2Br)c(Cl)c1 [compound 221] | 100 | 73 | 99 | 100 | 100 | 100 | 97 | –
Cc1nn(C)c(Nc2c(F)cc(Cl)cc2Cl)c1-c1ccc(F)cc1I [compound 222] | 100 | 0 | 90 | 98 | 77 | 96 | 0 | –
Cc1nn(C)c(Nc2c(F)cc(Br)cc2Br)c1-c1ccc(F)cc1I [compound 223] | 100 | 0 | 97 | 98 | 88 | 99 | 0 | –
Cc1nn(C)c(Nc2c(F)cc(Cl)cc2F)c1-c1ccc(F)cc1I [compound 225] | 100 | 0 | 99 | 99 | 68 | 100 | 0 | –
Cc1nn(C)c(Nc2c(F)cc(F)cc2Br)c1-c1ccc(F)cc1I [compound 226] | 100 | 0 | 99 | 97 | 97 | 100 | 60 | –
Cc1nn(C)c(Nc2c(Cl)cc(F)cc2Cl)c1-c1ccc(Cl)cc1F [compound 227] | 100 | 0 | 95 | 0 | 0 | 96 | 0 | –
Cc1nn(C)c(Nc2c(F)cc(F)cc2Cl)c1-c1ccc(Cl)cc1F [compound 228] | 100 | 0 | 96 | 68 | 40 | 81 | 0 | –
Cc1nn(C)c(Nc2c(F)cc(F)cc2Br)c1-c1ccc(Cl)cc1F [compound 229] | 100 | 9 | 97 | 99 | 99 | 98 | 64 | –
Cc1nn(C)c(Nc2c(F)cc(Cl)cc2F)c1-c1ccc(Cl)cc1F [compound 230] | 100 | 0 | 94 | 40 | 0 | 95 | 0 | –
Cc1nn(C)c(Nc2c(F)cc(Cl)cc2Cl)c1-c1ccc(Cl)cc1F [compound 231] | 100 | 9 | 94 | 33 | 58 | 99 | 0 | –
CCCN(CC)CC1COC2(CCC(C(C)(C)C)CC2)O1 (stereo not shown) [spiroxamine] | – | – | – | – | – | – | – | Test K3 Exp ([1]; component (b) 0.4 ppm alone): 0%; Test K3 Obsd ([1]; component (b) 0.4 ppm alone): 0%; Test K3 Exp ([1]; component (b) 2 ppm alone): 0%; Test K3 Obsd ([1]; component (b) 2 ppm alone): 0%; Test K3 Exp ([1]; component (b) 10 ppm alone): 0%; Test K3 Obsd ([1]; component (b) 10 ppm alone): 0%; Test K3 Exp ([1]; component (b) 40 ppm alone): 91%; Test K3 Obsd ([1]; component (b) 40 ppm alone): 99%; Test M5 Obsd disease control rating ([3]; component (b) alone 10 ppm): 0%; Test M5 Obsd disease control rating ([3]; component (b) alone 40 ppm): 3%; Test M5 Obsd disease control rating ([3]; component (b) alone 200 ppm): 0%
